In ChEMBL document CHEMBL3045412, “Antifungal activity and fungal metabolism of steroidal glycosides of Easter lily (Lilium longiflorum Thunb.) by the plant pathogenic fungus, Botrytis cinerea” (2011):
Active and inactive are the calls of the source. No cut-off for these calls is given here.

How the values were obtained:
[1] = test system: Botrytis cinerea; test: Antifungal activity against Botryotinia fuckeliana assessed as radial mycelia growth inhibition at 25 degC at 100 umol relative to control (crop protection Lilium longiflorum Thunb.); format: functional
[2] = test system: Botrytis cinerea; test: Antifungal activity against Botryotinia fuckeliana assessed as radial mycelia growth inhibition at 25 degC at 1 to 100 umol relative to control (crop protection Lilium longiflorum Thunb.); format: functional, organism-based

SMILES | growth inhibition (GI) [1] [%] | growth inhibition (GI) [2]
C[C@H](CC[C@@]1(O)O[C@H]2C[C@H]3[C@@H]4CC=C5C[C@@H](O[C@@H]6O[C@H](CO)[C@@H](O)[C@H](O[C@@H]7OC[C@H](O)[C@@H](O)[C@@H]7O)[C@H]6O[C@@H]6O[C@@H](C)[C@H](O)[C@@H](O)[C@H]6O)CC[C@]5(C)[C@H]4CC[C@]3(C)[C@H]2[C@@H]1C)CO[C@@H]1O[C@H](CO)[C@@H](O)[C@H](O)[C@H]1O | 25 | 
C[C@@H]1CC[C@@]2(NC1)O[C@H]1C[C@H]3[C@@H]4CC=C5C[C@@H](O[C@@H]6O[C@H](CO)[C@@H](O[C@@H]7O[C@H](CO)[C@@H](O)[C@H](O)[C@H]7O)[C@H](O)[C@H]6O[C@@H]6O[C@@H](C)[C@H](O)[C@@H](O)[C@H]6O)CC[C@]5(C)[C@H]4CC[C@]3(C)[C@H]1[C@@H]2C |  | Active
C[C@H](CC[C@@]1(O)O[C@H]2C[C@H]3[C@@H]4CC=C5C[C@@H](O[C@@H]6O[C@H](CO)[C@@H](O[C@@H]7O[C@H](CO)[C@@H](O)[C@H](O)[C@H]7O)[C@H](O)[C@H]6O[C@@H]6O[C@@H](C)[C@H](O)[C@@H](O)[C@H]6O)CC[C@]5(C)[C@H]4CC[C@]3(C)[C@H]2[C@@H]1C)CO[C@@H]1O[C@H](CO)[C@@H](O)[C@H](O)[C@H]1O | 25 | 
C[C@H](CC[C@@]1(O)O[C@H]2C[C@H]3[C@@H]4CC=C5C[C@@H](O[C@@H]6O[C@H](CO)[C@@H](O)[C@H](O[C@@H]7OC[C@H](O)[C@H](O)[C@H]7O)[C@H]6O[C@@H]6O[C@@H](C)[C@H](O)[C@@H](O)[C@H]6O)CC[C@]5(C)[C@H]4CC[C@]3(C)[C@H]2[C@@H]1C)CO[C@@H]1O[C@H](CO)[C@@H](O)[C@H](O)[C@H]1O | 25 | 
CC(=O)OC[C@H]1O[C@@H](O[C@H]2[C@H](O)[C@@H](O[C@@H]3O[C@@H](C)[C@H](O)[C@@H](O)[C@H]3O)[C@H](O[C@H]3CC[C@@]4(C)C(=CC[C@H]5[C@@H]6C[C@@H]7O[C@]8(CC[C@@H](C)CN8)[C@@H](C)[C@@H]7[C@@]6(C)CC[C@@H]54)C3)O[C@@H]2CO)[C@H](O)[C@@H](O)[C@@H]1O | 49 | 
